Common to all, as to type: functional
For assay [1], the system named is Rattus norvegicus. The assay can be described thus: Percent inhibition ethanol induced necrotic damage of gastric mucosa in male wistar rat after dosage; Dose range 25-100 mg/kg.
The subject of assay [2] is Rattus norvegicus. Kind of assay: Gastric cytoprotective effect as ulcerative index was calculated in male wistar rat after 100 mg/kg dosage.
Assay [3] relates to Rattus norvegicus. Kind of assay: Gastric cytoprotective effect as ulcerative index was calculated in male wistar rat after 20 mg/kg dosage.
Assay [4] has as its system Rattus norvegicus. The assay can be described thus: Percent inhibition ethanol induced necrotic damage of gastric mucosa in male wistar rat after 1 hr of contact with synthetic gastric juice; Dose range 25?100 mg/kg.
Assay [5] concerns Rattus norvegicus. Kind of assay: Percent inhibition ethanol induced necrotic damage of gastric mucosa in male wistar rat after 2 hr of contact with synthetic gastric juice; Dose range 25?100 mg/kg.
Assay [6] relates to Rattus norvegicus. Kind of assay: Gastric cytoprotective effect as ulcerative index was calculated in male wistar rat at 100 mg/kg dose after 1 hr of contact with synthetic gastric juice.
The test system of assay [7] is Rattus norvegicus. The assay can be described thus: Gastric cytoprotective effect as ulcerative index was calculated in male wistar rat at 100 mg/kg dose after 2 hr of contact with synthetic gastric juice.

The structures appear in SMILES notation.

In turn, `C=C(C=O)[C@@H]1CC[C@@]2(C)CCCC(C)=C2C1` yielded an Inhibition of damage with Rattus norvegicus [1] of 5%. In addition, the Ulcerative index in the assay on Rattus norvegicus [2] was 4.62.
`C=C(C=O)[C@@H]1CC[C@@]2(C)CCC[C@@](C)(O[Si](C)(C)C)C2C1` (some centres not stated): the Inhibition of damage in the assay with Rattus norvegicus [1] was 48%. The Ulcerative index in the assay with Rattus norvegicus [2] is listed as 2.5.
In the same order, the values of `C=C1C(=O)O[C@]23C[C@H]1CC[C@@]2(C)CCCC3=C` are 30% and 3.37.
In the case of `C=C(C(=O)O)[C@@H]1CCC2=CC=C[C@H](C)[C@@]2(C)C1`, in the assay with Rattus norvegicus [3], the Ulcerative index is listed as 3.7. Besides, in the assay on Rattus norvegicus [1], the Inhibition of damage is recorded as 23%.
For `C=C(C(=O)O)[C@@H]1CCC2=CC(=O)C[C@H](C)[C@@]2(C)C1` [TESSARIC ACID], in the assay on Rattus norvegicus [1], the Inhibition of damage turned out to be 5%. The Ulcerative index in the assay with Rattus norvegicus [2] is 4.62.
The like results for `C=C(CO)[C@@H]1CC[C@@]2(C)CCC[C@@](C)(O)C2C1` (some centres not stated) were, in that order, 1% and 4.8.
`C=C(C=O)[C@@H]1CC[C@@]2(C)CCC[C@@](C)(OC(=O)C(F)(F)F)C2C1` (some centres not stated): the results for the Inhibition of damage in the assay on Rattus norvegicus [4] and in the assay on Rattus norvegicus [5] were 86% and 96%, respectively. Moreover, the results for the Ulcerative index with Rattus norvegicus [6] and with Rattus norvegicus [7] were 0.66 and 0.16, respectively.
As for `C=C1C(=O)O[C@]23C[C@H]1CC[C@@]2(C)CCC[C@H]3C`, the Inhibition of damage in the assay on Rattus norvegicus [1] is on record as 48%. In the assay on Rattus norvegicus [2], the Ulcerative index is 2.5.
In the same order, the values of `C=C1CCC[C@]2(C)CC[C@@H](C(=C)C=O)CC12` (some centres not stated) are 23% and 3.75.
The like results for `C=C(C(=O)OC)[C@@H]1CCC2=CC(=O)C[C@H](C)[C@@]2(C)C1` [TESSARIC ACID METHYL ESTER] were, in that order, 5% and 4.62.
The like results for `C=C1C(=O)O[C@H]2C1CCC(C)=C1C(=O)C=C(C)[C@@H]12` (some centres not stated) were, in that order, 97% and 0.16.
Consider `C=C(C=O)[C@@H]1CC[C@@]2(C)CCC[C@@](C)(O)C2C1` (some centres not stated), for which, in the assay with Rattus norvegicus [1], the Inhibition of damage was found to be 96%. The Ulcerative index with Rattus norvegicus [2] is 0.2.
The like results for `C=C(C(=O)O)[C@@H]1CC[C@@]2(C)CCC[C@@](C)(O)C2C1` (some centres not stated) were, in that order, 5% and 4.62.
With `COc1ccc2[nH]c([S+]([O-])Cc3ncc(C)c(OC)c3C)nc2c1` (configuration not stated) [OMEPRAZOLE], the Ulcerative index in the assay on Rattus norvegicus [3] is 3. Besides, the Inhibition of damage in the assay on Rattus norvegicus [1] was 38%.
In the assay on Rattus norvegicus [1], `C=C(C(=O)O)[C@@H]1CC[C@@]2(C)CCCC(C)=C2C1` returned an Inhibition of damage of 17%. Moreover, in the assay on Rattus norvegicus [2], the Ulcerative index is reported as 4.

The values are drawn from ChEMBL document CHEMBL1142750, “Gastric cytoprotective activity of ilicic aldehyde: structure-activity relationships” (2005).
